Reference: patent US20140336182A1, “Aurora Kinase Modulators and Method of Use” (Amgen Inc., priority 2013, published 2014)
Like-named read-outs stand apart in the source and are kept apart here.

Tested on: HeLa cells
Assay: HeLa cell 24 hr ploidy assay (DNA content)
Format: cell-based
Conditions: 4N ploidy, read-out: 24h_4NPloidy EC50_IP (uM Avg)
Summary of the method: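 DNA content measured by Hoechst 33342 nuclear staining (0.5 ug/ml, 45 min RT) and high-content imaging of fixed HeLa cells after 24 h compound exposure in 0.25% DMSO. Fractions of 4N and >4N cells fitted to dose curves giving EC50 IP, EC50 transit, Max and Min.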

[1] = Homo sapiens, HeLa, HeLa cells, average

| SMILES | EC50 [1] | also measured |
| --- | --- | --- |
| COc1cnc2c(Oc3ccc(Nc4nnc(-c5ccc([S+](C)[O-])cc5)c5ccccc45)cc3)ccnc2c1 (centres unmarked) [compound 262] | > 1.2 µM |  |
| COc1cnc2c(Sc3ccc(Nc4nnc(-c5ccc(Cl)cn5)c5ccccc45)cc3)ccnc2c1 [compound 304, 4-(5-chloro-2-pyridinyl)-N-(4-((7-(methyloxy)-1,5-naphthyridin-4-yl)thio)phenyl)-1-phthalazinamine] | 0.008 µM |  |
| Cc1csc(-c2nnc(Nc3ccc(Oc4ccnc5cc(C(N)=O)ccc45)cc3)c3ccccc23)n1 [compound 95] |  | EC50 (Homo sapiens, HeLa, average): 0.167 µM |
| COc1cnc2c(Oc3ccc(Nc4nnc(-c5c(C)nn(C)c5C)c5ccccc45)cc3)ccnc2c1 [compound 261] | > 1.2 µM |  |
| Clc1ccc(-c2nnc(Nc3ccc(Sc4ccnc5ccoc45)cc3)c3ccccc23)cc1 [compound 465] | 0.02 µM |  |
| c1ccc(-c2nnc(Nc3ccc(Oc4ccnc5cc(-c6cn[nH]c6)ccc45)cc3)c3ccccc23)cc1 [compound 417] | 0.001 µM |  |
| CC(C)n1ccc2nccc(Sc3ccc(Nc4nnc(-c5ccc(Cl)cc5)c5ccccc45)cc3)c21 [compound 471] | 0.006 µM |  |
| Cc1ccc(-c2nnc(Nc3ccc(Oc4ccnc5ccccc45)c(F)c3)c3ccccc23)cc1 [compound 161] |  | EC50 (Homo sapiens, HeLa, average): 0.01 µM |
| N#Cc1ccc2nccc(Oc3ccc(Nc4nnc(-c5ccccc5)c5ccccc45)cc3)c2c1 [compound 592] | 0.147 µM |  |
| COc1cnc2c(Sc3ccc(Nc4nnc(Cl)c5ccccc45)cc3)ccnc2c1 [compound 536] | 0.031 µM |  |
| COc1cnc2c(Sc3ccc(Nc4nnc(N5CCN(C(C)=O)CC5)c5ccccc45)cc3)ccnc2c1 [compound 608] | 0.016 µM |  |
| COCCOc1ccc(-c2nnc(Nc3ccc(Sc4ccnc5cc(OC)cnc45)cc3)c3ccccc23)cc1OCCOC [compound 473] | 0.1 µM |  |
| O=c1ccc2nccc(Sc3ccc(Nc4nnc(-c5ccc(Cl)cn5)c5ccccc45)cc3)c2[nH]1 [Example 405, 8-(4-(4-(5-Chloropyridin-2-yl)phthalazin-1-ylamino)phenylthio)-1,5-naphthyridin-2(1H)-one] | 0.036 µM |  |
| CCc1cc(-c2ccc(Cl)cc2)nnc1Nc1ccc(Oc2ccnc3cc(OC)cnc23)cc1 [compound 256] | 0.049 µM |  |
| COc1cnc2c(Oc3ccc(Nc4nnc(-c5cc6ccccc6s5)c5ccccc45)cc3)ccnc2c1 [compound 171] | 0.004 µM |  |
| Cc1ccc(-c2nnc(Nc3ccc(Sc4ccnc5ccoc45)cc3)c3ccccc23)cn1 [compound 481] | 0.032 µM |  |
| COc1cc2nccc(Sc3ccc(Nc4nnc(-c5ccc(Cl)cc5)c5ccccc45)cc3)c2nc1OC [compound 598] | 0.028 µM |  |
| COc1cnc2c(Oc3ccc(Nc4nnc(-c5ccc(N(C)C)cc5)c5ccccc45)cc3)ccnc2c1 [compound 194] | 0.033 µM |  |
| Clc1ccc(-c2nnc(Nc3ccc(Sc4ccnc5ccncc45)cc3)c3ccccc23)nc1 [compound 430] | 0.007 µM |  |
| c1ccc(-c2nnc(Nc3ccc(Sc4ccnc5cccnc45)cc3)c3ccccc23)cc1 [compound 309] |  | EC50 (HeLa cells, average): 0.021 µM |
| Fc1cc(Nc2nnc(-c3ccccc3)c3ccccc23)ccc1Oc1ccnc2ccccc12 [compound 115] |  | EC50 (Homo sapiens, HeLa, average): 0.116 µM |
| COc1cnc2c(Sc3ccc(Nc4nnc(N5CCN6CC(F)(F)C[C@H]6C5)c5ccccc45)cc3)ccnc2c1 [compound 601] | 0.005 µM |  |
| COc1cc2nccc(Oc3ccc(Nc4nnc(-c5cccc(C)n5)c5ccccc45)cc3)c2cc1OC [compound 150] |  | EC50 (Homo sapiens, HeLa, average): 0.017 µM |
| CCc1cc(-c2ccc(C)cc2)nnc1Nc1ccc(Nc2ccnc3cc(OC)cnc23)cc1 [compound 595] | 0.083 µM |  |

| SMILES | EC50 [1] | also measured |
| --- | --- | --- |
| COc1cnc2c(Oc3ccc(Nc4nnc(-c5cn[nH]c5)c5ccccc45)cc3)ccnc2c1 [compound 212] | 0.501 µM |  |
| Cc1csc(-c2nnc(Nc3ccc(Oc4ccnc5cc(C#N)ccc45)cc3)c3ccccc23)n1 [compound 86, 4-((4-((4-(4-methyl-1,3-thiazol-2-yl)-1-phthalazinyl)amino)phenyl)oxy)-7-quinolinecarbonitrile] |  | EC50 (Homo sapiens, HeLa, average): 0.097 µM |
| COc1cnc2c(Oc3ccc(Nc4nnc(N5CCN(S(C)(=O)=O)CC5)c5ccccc45)cc3)ccnc2c1 [compound 607] | 0.482 µM |  |
| Cc1ccc(-c2nnc(Nc3ccc(Sc4ccnc5cc(C#N)oc45)cc3)c3ccccc23)cc1N [compound 490] | 0.009 µM |  |
| COc1cnc2c(Oc3ccc(Nc4nnc(-c5ccc(Cl)cn5)c5ccccc45)cc3)ccnc2c1 [compound 228, 4-(5-chloro-2-pyridinyl)-N-(4-((7-(methyloxy)-1,5-naphthyridin-4-yl)oxy)phenyl)-1-phthalazinamine] | 0.035 µM |  |
| Clc1ccc(-c2nnc(Nc3ccc(Sc4ccnc5ccsc45)cc3)c3ccccc23)cc1 [compound 332] | 0.001 µM |  |
| COc1cnc2c(Sc3ccc(Nc4nnc(SC)c5ccccc45)cc3)ccnc2c1 [compound 514] | 0.02 µM |  |
| COc1cnc2c(Sc3ccc(Nc4nnc(OC)c5ccccc45)cc3)ccnc2c1 [Example 402, 4-Methoxy-N-(4-(7-methoxy-1,5-naphthyridin-4-ylthio)phenyl)phthalazin-1-amine] | 0.066 µM |  |
| COc1cnc2c(Oc3ccc(Nc4nnc(-c5ccc(C)c(O)c5)c5ccccc45)cc3)ccnc2c1 [compound 449] | < 0.0023 µM |  |
| C#Cc1ccc(-c2nnc(Nc3ccc(Oc4ccnc5cc(OC)cnc45)cc3)c3ccccc23)cc1 [compound 287] | 0.06 µM |  |
| Clc1ccc(-c2nnc(Nc3ccc(Sc4ccnc5ccncc45)cc3)c3ccccc23)cc1 [compound 426] | 0.008 µM |  |
| COc1cc2c(Oc3ccc(Nc4nnc(-c5ccccc5)c5ccccc45)cc3)ccnc2cc1OCc1ccccc1 [compound 326] | 0.06 µM |  |
| COc1cnc2c(Oc3ccc(Nc4nnc(-c5ccc(F)cc5)c5ccccc45)cc3)ccnc2c1 [compound 220, 4-(4-fluorophenyl)-N-(4-((7-(methyloxy)-1,5-naphthyridin-4-yl)oxy)phenyl)-1-phthalazinamine] | 0.036 µM |  |
| COCCCNc1nnc(Nc2ccc(Sc3ccnc4cc(OC)cnc34)cc2)c2ccccc12 [compound 535] | 0.026 µM |  |
| COc1cc2nccc(Oc3ccc(Nc4nnc(-c5cc(C)ccn5)c5ccccc45)cc3)c2cn1 [compound 121] |  | EC50 (Homo sapiens, HeLa, average): 0.132 µM |
| c1ccc(-c2nnc(Nc3ccc(Sc4ccnc5ccccc45)cc3)c3ccccc23)cc1 [compound 294] |  | EC50 (Homo sapiens, HeLa, HeLa cells, given as class symbol): < 0.1 µM |
| COc1ccc2nccc(Oc3ccc(Nc4nnc(-c5ccc6c(c5)OCO6)c5ccccc45)cc3)c2n1 [compound 551] | 0.002 µM |  |
| COC1CCN(c2nnc(Nc3ccc(Oc4ccnc5ccoc45)cc3)c3ccccc23)CC1 [compound 478] | 0.381 µM |  |
| COc1cnc2c(Oc3ccc(Nc4nnc(-c5cc(CO)cs5)c5ccccc45)cc3)ccnc2c1 [Example 407, (5-(4-(4-(7-Methoxy-1,5-naphthyridin-4-yloxy)phenylamino)phthalazin-1-yl)thiophen-3-yl)methanol] | 0.012 µM |  |
| COc1cnc2c(Oc3ccc(Nc4nnc(-c5ccc6c(c5)CC(C)(C)O6)c5ccccc45)cc3)ccnc2c1 [compound 136] |  | EC50 (Homo sapiens, HeLa, average): 0.099 µM |
| Cc1ccc(-c2nnc(Nc3ccc(Oc4ccnc5ccoc45)cc3)c3ccccc23)cc1N [compound 480] | 0.112 µM |  |
| COc1cnc2c(Sc3ccc(Nc4nnc(N5CCN(CC(F)F)CC5)c5ccccc45)cc3)ccnc2c1 [compound 507] | 0.018 µM |  |
| Clc1ccc(-c2nnc(Nc3ccc(Sc4ccnc5cc(C6CC6)oc45)cc3)c3ccccc23)cc1 [compound 486] | 0.002 µM |  |
